According to patent US20190307818A1, “NOVEL ANTIMICROBIAL COMPOSITIONS AND METHODS OF USE” (priority 2016, published 2019):

What was measured:
[1] = system: P. aeruginosa PA14 ΔlasI ΔrhII CRISPR adaptation; assay: CRISPR adaptation (new spacer integration by PCR); type: cell-based; conditions: ΔlasI ΔrhII strain; AIs 2 μM 3-O—C12-HSL+10 μM C4-HSL given together; Baicalein 100 μM with AIs; vs DMSO
Method: FIG. 3. QS inhibitors block CRISPR adaptation and disable QS-mediated bacterial immunity. A P. aeruginosa PA14 ΔlasI ΔrhII QS deficient strain was transformed with foreign DNA (e.g., a CRISPR-targeted plasmid). A single colony from the transformation was re-streaked on selective media containing either DMSO (as a control), AIs (2 μM 3-O—C12-HSL+10 μM C4-HSL), or AIs and a QS inhibitor (2 μM 3-O—C12-HSL+10 μM C4-HSL+100 μM Baicalein). Single colonies were tested for integration of new inserted spacers (conferring immunity) against the CRISPR-targeted plasmid. In particular, PCR primers were designed to amplify specific genomic regions into which spacers were inserted. Primers complementary to the region upstream of the CRISPR region and to the second spacer region were designed, and PCR amplification was utilized to test for the presence of the newly inserted spacer (a process referred to as adaptation).
A P. aeruginosa PA14 ΔlasI ΔrhII QS deficient strain was transformed with foreign DNA (e.g., a CRISPR-targeted plasmid such as pCR2SP1, as described above). A single colony from the transformation was re-streaked on selective medium, e.g., LB medium containing 50 μg/ml gentamicin and either DMSO (as a control), AIs (2 μM 3-O—C12-HSL+10 μM C4-HSL), or both AIs and a QS inhibitor (2 μM 3-O—C12-HSL+[…] C4-HSL+100 μM Baicalein QS inhibitor) and incubated at 37° C. O/N. Single colonies were tested for integration of new immunity spacers against the CRISPR-targeted plasmid by PCR using iProof High-Fidelity DNA Polymerase (Bio-Rad) and primers CR2SP check F+R upstream of the CRISPR2 region and in the second spacer. Thus, PCR primers were designed to amplify the genomic region in which the new spacer was present. Primers targeting a sequence upstream of the CRISPR-Cas region and targeting the second spacer region were designed, and PCR amplification was utilized to test for the presence of the new inserted spacer (a portion of the plasmid sequence inserted between the CRISPR locus and spacers). […]

LasR and RhlR = assay: Receptor specific reporter assays for LasR and RhlR activity (stated in words); type: cell-based, P. aeruginosa
Text: wherein R may be H or OH, and two or more of the R substituents of a given compound are OH; R′ is H or OH; and R″ is H or OH. […] A variety of compounds were obtained and tested for activity (e.g., inhibition of receptor specific reporter assays for LasR and RhlR activity).
(§1) A two plasmid E. coli reporter system was constructed, in which LasR or RhlR was expressed under an arabinose inducible promoter (e.g., LasR or RhlR was cloned into a pBAD-A vector and expressed upon addition of arabinose) in the presence of a LasR-dependent or RhlR-dependent promoter fused to luciferase (e.g., cloned into a pCS26 vector). Upon the addition of arabinose and in the presence of AI, LasR or RhlR were expressed, formed a complex with the cognate AI, underwent dimerization, and activated transcription of the reporter construct. All potential inhibitors were tested at 100 μM. The percent activity was reported relative to wild-type (100%).

LasR [2] = target: T1, LasR (Pseudomonas aeruginosa, UniProt P25084); assay: Two plasmid E. coli LasR reporter (luciferase); type: cell-based, P. aeruginosa; conditions: read-out: Percent Activity (LasR reporter)
T1 construct: expressed in transfected cells; host or cells: E. coli TOP10 carrying pBAD-A 6xHIS-lasR and pCS26 plasB-luxCDABE
T1 sequence (P25084 whole entry): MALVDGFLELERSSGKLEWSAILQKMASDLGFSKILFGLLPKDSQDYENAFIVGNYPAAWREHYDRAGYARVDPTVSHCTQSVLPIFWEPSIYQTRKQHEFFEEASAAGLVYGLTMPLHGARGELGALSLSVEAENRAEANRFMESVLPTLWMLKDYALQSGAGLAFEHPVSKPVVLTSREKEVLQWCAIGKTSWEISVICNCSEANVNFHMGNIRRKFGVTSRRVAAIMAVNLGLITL
Text: as §1
A sample experimental protocol for the RhlR reporter (see, e.g., Table 5A2) or for the LasR reporter (see, e.g., Table 5A1).
A clean plate was filled with water, 70% ethanol, LB, and primed with cultured cells to ensure that initial dispensing led to the appropriate volume of cells being added to the wells. 20 μL of this solution was dispensed into appropriate wells in a 384-well plate that contained small molecule antagonists. 20 μL of this solution was dispensed into wells intended for a positive control that contain only DMSO. To the culture that was saved for negative control, arabinose was added to 0.1%. An equal volume of DMSO was added to the culture, relative to the amount of AI added to the other culture. 20 μL of culture was dispensed into wells intended for a negative control that contained only DMSO and no small molecule QS inhibitors. Plates were incubated at 30° C. in the plate shaker. Plates were read using a 384 LUM/OD 600 setting on the plate reader after 4 hours of induction.
For data analysis, the average and standard deviation for each of the control groups were determined. In a screen, for each data point, the number of standard deviations from the mean was determined to determine if the inhibitor was a “hit”. In a dose response curve, for each data point, the percent inhibition was determined: 1−(X/M), where X=single data point and M=is the mean of the AI only control group. The dose response curve was then plotted as a function of % inhibition (y) v. [inhibitor] on a log scale (x).

LasR [3] = target: T1, LasR; assay: 10-point autoinducer dose response on LasR reporter with QS inhibitor (competition); type: cell-based, P. aeruginosa; conditions: inhibitor at 100 μM; increasing concentrations of AI
Method: FIG. 4. QS inhibitors bind non-competitively to LasR. A 10-point dose response curve with increasing concentrations of autoinducer 3-O—C12-HSL (AI) was generated for a variety of QS small molecule inhibitors. In this figure, curve C12 (filled circle) corresponds to the absence of inhibitor. […] Instead, the inhibitors bind elsewhere on LasR to prevent LasR-dependent transcription.
Using known molecular biology techniques, assays were performed to determine whether binding of the small molecule QS inhibitors and the AIs occurred by a competitive or by another inhibitory mechanism (see, e.g., FIG. 4).
Thus, a 10-point dose response curve with concentrations of AI ranging from 10 pM to 5 nM was generated for a variety of QS small molecule inhibitors. Curve C12 (dotted filled line) corresponds to the absence of inhibitor. […] Instead, the inhibitors bind elsewhere on LasR to prevent LasR-dependent transcription.

[4] = system: Wild-type P. aeruginosa pyocyanin production; assay: Pyocyanin virulence factor production; type: cell-based; conditions: 100 μM overnight, back diluted, grown 18 hrs with inhibitor
Method: FIG. 6. QS inhibitors reduce the level of virulence factor production in P. aeruginosa. The ability of the small molecule inhibitors to reduce virulence factor production by monitoring pyocyanin production was assessed.
The ability of the small molecule QS inhibitors to reduce virulence factor production by monitoring production of pyocyanin as a representative virulence factor was assessed. Wild-type P. aeruginosa was incubated with the indicated molecules at 100 μM overnight, back diluted, and grown for 18 hrs in the presence of QS inhibitor.
By varying the concentration of QS inhibitors, dose dependence curves were generated.

SMILES: O=c1cc(-c2ccccc2)oc2cc(O)c(O)c(O)c12 [Molecule 46, Baicalein]
- CRISPR adaptation (fraction of cells in the colony that adapted) [1]: blocked the positive effects of AIs on CRISPR adaptation
- activity (inhibition of receptor specific reporter assays for LasR and RhlR activity) (LasR and RhlR): inhibit both LasR and RhlR
- remaining activity at 100 µM (LasR [2]): 46.7%
- competition with autoinducer 3-O—C12-HSL for LasR (LasR [3]): did not compete
- pyocyanin production [4]: inhibit pyocyanin to varying degrees
